Where a name gives a salt, the structure may show the parent alone.
What was measured:
Type in all cases: cell-based
[1] = target: T1, human prostanoid EP4 receptor (Homo sapiens, UniProt P35408); test: FLIPR Ca2+ signaling antagonist assay, EP4 receptor stable cell line; conditions: human recombinant EP4 + chimeric Gqs in HEK-293 EBNA cells; standard agonist PGE2; NA = no antagonism or Kb>=10,000 nM
T1 construct: expressed in transfected cells
Method: (§1) The above compounds were tested for PG antagonist activity as follows using human recombinant prostanoid receptor (DP1, EP1-4, FP, IP and TP) stable cell lines:
(§2) In order to measure the response of Gs and Gi coupled prostanoid receptors as a Ca^2+ signal, chimeric G protein cDNAs were used. Stable cell lines over-expressing human prostanoid DP1, EP1-4, FP, IP, and TP receptors were established as follows:
(§3) Briefly, human prostanoid DP1, EP2, and EP4 receptor cDNAs were co-transfected with chimeric Gqs cDNA containing a haemagglutanin (HA) epitope; human prostanoid EP3 receptors were co-transfected with chimeric Gqi-HA; human EP1, FP, IP, and TP receptor cDNAs were expressed with no exogenous G-proteins. Gqs and Gqi chimeric cDNAs (Molecular Devices, Sunnyvale, Calif., U.S.A.), as well as cDNAs of prostanoid receptors, were cloned into a pCEP4 vector with a hygromycin B selection marker. Transfection into HEK-293 EBNA (Epstein-Barr virus nuclear antigen) cells was achieved by the FuGENE 6 transfection Reagent (Roche Applied Science, Indianapolis, Ind., USA). Stable transfectants were selected according to hygromycin resistance. Because Gqs and Gqi contained an HA epitope, G-protein expression was detected by Western blotting analysis using anti-mouse HA monoclonal antibody and horseradish peroxidase (HRP)-conjugated secondary antibody, while functional expression of prostanoid receptors was detected by FLIPR screening (Matias et al., 2004). These stable cell lines were validated using previously published antagonists at 10 μM against serial dilutions of standard agonists by FLIPR functional assays for Ca^2+ Signaling (as described below).
(§4) Ca^2+ signaling studies were performed using a FLIPR TETRA system (Molecular Devices, Sunnyvale, Calif., USA) in the 384-format. This is a high-throughput instrument for cell-based assays to monitor Ca^2+ signaling associated with GPCRs and ion channels. Cells were seeded at a density of 5×10^4 cells/well in BioCoat poly-D-lysine coated, black wall, clear bottom 384-well plates (BD Biosciences, Franklin lakes, NJ, USA) and allowed to attach overnight in an incubator at 37° C. The cells were then washed twice with HBSS-HEPES buffer (Hanks' balanced salt solution without bicarbonate and phenol red, 20 mM HEPES, pH 7.4) using an ELx405 Select CW Microplate Washer (BioTek, Winooski, Vt., USA). After 60 min of dye-loading in the dark using the Ca^2+-sensitive dye Fluo-4AM (Invitrogen, Carlsbad, Calif., USA), at a final concentration of 2×10^−6M, the plates were washed 4 times with HBSS-HEPES buffer to remove excess dye and leaving 50 μl of buffer in each well. The plates were then placed in the FLIPR TETRA instrument and allowed to equilibrate at 37° C. AGN-211377 was added in a 25 μl volume to each well to give final concentrations of 0.1 μl. M, 0.4M, 1 μM, 3 μl. M, 10 μl. M, and 30 μl. M; or 0.067 μM, 0.4M, 0.67 μM, and 1 μM for cells over-expressing TP receptors. After 4.5 minutes, a 7-point serial dilution of the standard agonist for the corresponding receptor, in a 25 μl volume was injected at the final concentrations from 10^−11M to 10^−5M in 10-fold serial dilution increments for cells expressing human recombinant DP1, EP1, EP2, EP3, EP4, FP, and IP receptors. The dose range for the standard agonist for human recombinant TP receptors was from 10^−12M to 10^−6M. HBSS-HEPES buffer was used as the negative control for the standard agonists. Cells were excited with LED (light emitting diode) excitation at 470-495 nm and emission was measured through an emission filter at 515-575 nm. Assay plates were read for 3.5 minutes using the FLIPR^TETRA. The peak increase in fluorescence intensity was recorded for each well. On each plate, negative controls, dose response of positive controls, and co-treatments of antagonist-agonist for each dose were in triplicates. Standard agonists were as follows: DP=BW 245C, EP1-EP4=PGE2, FP=17-phenyl-PGF2a, IP=Cicaprost, and TP=U-46619. […]

[2] = target: T2, human prostanoid IP receptor (Homo sapiens, UniProt P43119); test: FLIPR Ca2+ signaling antagonist assay, IP receptor stable cell line; parameters: key to FLIPR data IP (Kb): PAg = partial agonist; Ag = agonist; NA = not active; conditions: human recombinant IP in HEK-293 EBNA cells; standard agonist Cicaprost; NA = no antagonism or Kb>=10,000 nM
T2 construct: expressed in transfected cells
Method: as §1, §2, §3, §4

[3] = target: T3, human prostanoid EP2 receptor (Homo sapiens, UniProt P43116); test: FLIPR Ca2+ signaling antagonist assay, EP2 receptor stable cell line; parameters: key to FLIPR data EP2 (Kb): PAg = partial agonist; Ag = agonist; NA = not active; conditions: human recombinant EP2 + chimeric Gqs in HEK-293 EBNA cells; standard agonist PGE2; NA = no antagonism or Kb>=10,000 nM
T3 construct: expressed in transfected cells
Method: as §1, §2, §3, §4

[4] = target: T4, human prostanoid DP1 receptor (Homo sapiens, UniProt Q13258); test: FLIPR Ca2+ signaling antagonist assay, DP1 receptor stable cell line; parameters: key to FLIPR data DP1 (Kb): PAg = partial agonist; Ag = agonist; NA = not active; conditions: human recombinant DP1 + chimeric Gqs in HEK-293 EBNA cells; standard agonist BW 245C; NA = no antagonism or Kb>=10,000 nM
T4 construct: expressed in transfected cells
T4 sequence (Q13258 1-359): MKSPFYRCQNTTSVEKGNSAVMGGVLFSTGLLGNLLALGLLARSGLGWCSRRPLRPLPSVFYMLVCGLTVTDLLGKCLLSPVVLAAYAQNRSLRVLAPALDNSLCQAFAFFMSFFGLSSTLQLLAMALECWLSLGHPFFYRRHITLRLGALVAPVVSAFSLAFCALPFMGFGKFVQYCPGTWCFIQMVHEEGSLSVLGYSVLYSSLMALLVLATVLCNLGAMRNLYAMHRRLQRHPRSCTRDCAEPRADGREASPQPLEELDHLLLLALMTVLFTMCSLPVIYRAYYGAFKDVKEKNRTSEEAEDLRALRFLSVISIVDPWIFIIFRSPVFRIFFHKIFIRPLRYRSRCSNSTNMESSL
Method: as §1, §2, §3, §4

T2 sequence (P43119 whole entry): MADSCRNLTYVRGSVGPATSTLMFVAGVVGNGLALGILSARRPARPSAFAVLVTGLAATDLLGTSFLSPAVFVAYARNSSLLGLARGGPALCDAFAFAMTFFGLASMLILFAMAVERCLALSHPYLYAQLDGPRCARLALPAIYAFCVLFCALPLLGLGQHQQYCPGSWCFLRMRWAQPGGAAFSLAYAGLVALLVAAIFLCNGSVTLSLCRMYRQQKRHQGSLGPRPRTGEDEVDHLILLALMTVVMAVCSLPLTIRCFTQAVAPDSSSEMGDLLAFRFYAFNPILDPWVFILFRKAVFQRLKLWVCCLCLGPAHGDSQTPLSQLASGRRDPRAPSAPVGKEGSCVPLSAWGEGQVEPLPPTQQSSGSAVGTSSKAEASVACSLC
T1 sequence (P35408 whole entry): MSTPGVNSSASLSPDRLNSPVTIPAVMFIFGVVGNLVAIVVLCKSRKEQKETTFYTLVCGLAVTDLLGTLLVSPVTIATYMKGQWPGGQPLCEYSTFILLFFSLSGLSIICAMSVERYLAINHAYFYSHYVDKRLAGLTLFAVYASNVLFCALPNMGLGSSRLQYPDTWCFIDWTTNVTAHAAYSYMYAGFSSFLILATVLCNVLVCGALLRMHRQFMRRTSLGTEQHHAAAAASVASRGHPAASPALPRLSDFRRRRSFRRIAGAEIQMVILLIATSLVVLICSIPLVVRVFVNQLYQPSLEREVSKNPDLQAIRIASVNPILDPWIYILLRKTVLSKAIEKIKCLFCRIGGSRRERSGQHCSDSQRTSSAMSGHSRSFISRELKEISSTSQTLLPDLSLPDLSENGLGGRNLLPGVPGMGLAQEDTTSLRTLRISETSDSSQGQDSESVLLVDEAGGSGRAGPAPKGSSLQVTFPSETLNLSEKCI
T3 sequence (P43116 whole entry): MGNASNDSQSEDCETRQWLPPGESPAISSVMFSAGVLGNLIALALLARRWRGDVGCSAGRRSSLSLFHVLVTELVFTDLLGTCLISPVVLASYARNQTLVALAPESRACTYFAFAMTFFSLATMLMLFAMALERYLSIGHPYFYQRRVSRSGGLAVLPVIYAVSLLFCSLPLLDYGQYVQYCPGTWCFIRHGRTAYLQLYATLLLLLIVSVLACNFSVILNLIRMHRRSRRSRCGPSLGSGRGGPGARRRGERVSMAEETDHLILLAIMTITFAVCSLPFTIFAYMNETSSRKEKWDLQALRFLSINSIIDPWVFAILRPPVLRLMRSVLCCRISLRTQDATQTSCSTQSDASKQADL

Row | Compound | Kb [1] [nM] | Kb [2] [nM] | Kb [3] [nM] | Kb [4] [nM] | FLIPR data DP1 (Kb) [4] | FLIPR data IP (Kb) [2] | FLIPR data EP2 (Kb) [3]
1 | CC(C)Cn1ncc2cc(Cl)cc(Cn3nc(N)c4cc(C(=O)O)ccc43)c21 [Compound 68, 3-Amino-1-[(5-chloro-1-isobutyl-indazol-7-yl)methyl]indazole-5-carboxylic acid] | 60 | 9300 | > 10000 | 3700 |  |  | 
2 | CC(C)Cn1ncc2cc(Cl)cc(Cn3ncc4cc(C(=O)O)ccc43)c21 [Compound 41, 1-(5-Chloro-1-isobutyl-1H-indazol-7-ylmethyl)-1H-indazole-5-carboxylic acid] | 24 | > 10000 | 9200 | 460 |  |  | 
3 | CC(C)Cn1ncc2cc(Cl)cc(Cn3cnc4cc(C(=O)O)cnc43)c21 [Compound 51, 3-(5-Chloro-1-isobutyl-1H-indazol-7-ylmethyl)-3H-imidazo[4,5-b]pyridine-6-carboxylic acid] | 280 | 8000 | > 10000 | > 10000 |  |  | 
4 | CC(C)Cn1ncc2cc(C(F)(F)F)cc(Cn3cnc4cc(C(=O)O)ccc43)c21 [Compound 55, 1-(1-Isobutyl-5-trifluoromethyl-1H-indazol-7-ylmethyl)-1H-benzoimidazole-5-carboxylic acid] | 80 | 8900 | > 10000 | > 10000 |  |  | 
5 | CC(C)n1ncc2cc(Br)cc(Cn3ncc4cc(C(=O)O)ccc43)c21 [Compound 46, 1-(5-Bromo-1-isopropyl-1H-indazol-7-ylmethyl)-1H-indazole-5-carboxylic acid] | 330 | > 10000 | > 10000 | > 10000 |  |  | 
6 | CC(C)Cn1ncc2cc(Cl)cc(Cn3ccc4cc(C(=O)O)cnc43)c21 [Compound 52, 1-(5-Chloro-1-isobutyl-1H-indazol-7-ylmethyl)-1H-pyrrolo[2,3-b]pyridine-5-carboxylic acid] | 90 | 5500 | > 10000 |  | Ag |  | 
7 | CC(C)Cn1ncc2cc(F)cc(Cn3ncc4cc(C(=O)O)ccc43)c21 [Compound 43, 1-(5-Fluoro-1-isobutyl-1H-indazol-7-ylmethyl)-1H-indazole-5-carboxylic acid] | 100 | > 10000 | > 10000 | 1700 |  |  | 
8 | CC(C)Cn1ncc2cc(Cl)cc(Cn3cnc4cc(C(=O)O)ccc43)c21 [Compound 50, 1-(5-Chloro-1-isobutyl-1H-indazol-7-ylmethyl)-1H-benzoimidazole-5-carboxylic acid] | 80 | > 10000 | > 10000 | > 10000 |  |  | 
9 | CC(C)Cn1ncc2cc(C(F)(F)F)cc(Cn3ncc4cc(C(=O)O)ccc43)c21 [Compound 44, 1-(1-Isobutyl-5-trifluoromethyl-1H-indazol-7-ylmethyl)-1H-indazole-5-carboxylic acid] | 28 |  |  | 1000 |  | PAg | PAg
10 | CC(C)Cn1ncc2cc(Br)cc(Cn3ncc4cc(C(=O)O)ccc43)c21 [Compound 42, 1-(5-Bromo-1-isobutyl-1H-indazol-7-ylmethyl)-1H-indazole-5-carboxylic acid] | 22 | > 10000 | > 10000 | 590 |  |  | 
11 | CCC(CC)Cn1ncc2cc(Br)cc(Cn3ncc4cc(C(=O)O)ccc43)c21 [Compound 47, 1-[5-Bromo-1-(2-ethyl-butyl)-1H-indazol-7-ylmethyl]-1H-indazole-5-carboxylic acid] | 1700 | 1000 | 5000 | 1400 |  |  | 
12 | CC(C)Cn1ncc2cc(OC(F)(F)F)cc(Cn3ncc4cc(C(=O)O)ccc43)c21 [Compound 45, 1-(1-Isobutyl-5-trifluoromethoxy-1H-indazol-7-ylmethyl)-1H-indazole-5-carboxylic acid] | 5 |  | > 10000 | 300 |  | Ag | 
13 | Cc1nn(Cc2cc(Br)cc3cnn(CC(C)C)c23)c2ncc(C(=O)O)cc12 [Compound 54, 1-(5-Bromo-1-isobutyl-1H-indazol-7-ylmethyl)-3-methyl-1H-pyrazolo[3,4-b]pyridine-5-carboxylic HCl salt] | 380 | 9500 | > 10000 | 200 |  |  | 
14 | CC(C)Cn1ncc2cc(Cl)cc(Cn3ncc4cc(C(=O)O)cnc43)c21 [Compound 49, 1-(5-Chloro-1-isobutyl-1H-indazol-7-ylmethyl)-1H-pyrazolo[3,4-b]pyridine-5-carboxylic acid] | 90 | 8900 | > 10000 | 3500 |  |  | 
15 | CNc1nn(Cc2cc(Cl)cc3cnn(CC(C)C)c23)c2ccc(C(=O)O)cc12 [Compound 70, 1-[(5-Chloro-1-isobutyl-indazol-7-yl)methyl]-3-(methylamino)indazole-5-carboxylic acid] | 1 | 900 | 7000 | 1000 |  |  | 
16 | CC(C)Cn1ncc2cc(Cl)cc(Cc3ncc4cc(C(=O)O)ccn34)c21 [Compound 61, 3-[(5-Chloro-1-isobutyl-indazol-7-yl)methyl]imidazo[1,5-a]pyridine-7-carboxylic acid] | 200 | > 10000 | > 10000 | 4700 |  |  | 
17 | Cc1nn(Cc2cc(Br)cc3cnn(CC(C)C)c23)c2ccc(C(=O)O)cc12 [Compound 53, 1-(5-Bromo-1-isobutyl-1H-indazol-7-ylmethyl)-3-methyl-1H-indazole-5-carboxylic acid] | 90 | > 10000 | > 10000 | 640 |  |  | 
18 | CC(C)Cn1ncc2cc(OC(F)(F)F)cc(Cn3cnc4cc(C(=O)O)ccc43)c21 [Compound 56, 1-(1-Isobutyl-5-trifluoromethoxy-1H-indazol-7-ylmethyl)-1H-benzoimidazole-5-carboxylic acid] | 6 | 9000 | > 10000 | 5200 |  |  | 
19 | CCCn1ncc2cc(Cl)cc(Cn3ncc4cc(C(=O)O)ccc43)c21 [Compound 48] | 130 | > 10000 | > 10000 | 5500 |  |  | 

From patent publication US9657018B2, “Antagonists acting at multiple prostaglandin receptors for the treatment of inflammation” (Allergan, Inc., priority 2014, dated 2017)
